According to patent US8624034B2, “Fluoro-pyridinone derivatives useful as antibacterial agents” (Pfizer Inc., priority 2011, dated 2014):
pIC50: −log10 of the molar value. In brackets after ≈: the same amount, converted by molar mass. Like-named read-outs stand apart in the source and are kept apart here.

Assays:
PA:UC12120 = experiment: MIC determination, PA:UC12120 (Table 3); format: cell-based, Pseudomonas aeruginosa; details: Pseudomonas aeruginosa, UC12120, Table 3, lower of duplicate values
Description: (§1) The in vitro antibacterial activity of compounds described in the Examples was evaluated by minimum inhibitory concentration (MIC) testing according to Clinical and Laboratory Standards Institute (CLSI). See: Clinical and Laboratory Standards Institute. Methods for Dilution Antimicrobial Susceptibility Tests for Bacteria that Grow Aerobically; Approved Standard-Eighth Edition. CLSI document M7-A8 [ISBN 1-56238-689-1]. Clinical and Laboratory Standards Institute, 940 West Valley Road, Suite 1400, Wayne, Pa. 19087-1898 USA, 2006; also Clinical and Laboratory Standards Institute. Performance Standards for Antimicrobial Susceptibility Testing; Twentieth Informational Supplement. CLSI document M100-S20 [ISBN 1-56238-716-2]. Clinical and Laboratory Standards Institute.
(§2) The MIC determination is a standard laboratory method for evaluating the antibacterial activity of a compound. The MIC represents the lowest drug concentration that inhibits visible growth of bacteria following overnight incubation. […] Typically, the drug concentration range is broken down into 2-fold increments (e.g. 0.06 μg/mL, 0.12 μg/mL. 0.25 μg/mL, 0.50 μg/mL, 1.0 μg/mL, etc.) and the various drug concentrations are all individually incubated overnight with approximately the same number of bacteria. The MIC is then determined by visually inspecting the drug effect at each concentration, and identifying the lowest drug concentration that has inhibited bacterial growth as compared to the drug free control. Typically, bacteria continue to grow at drug concentrations lower than the MIC and don't grow at concentrations at and above the MIC.
(§3) The MIC values described in Table 2 and 3 below were derived from assays wherein each test compound was evaluated in duplicate. In cases where the duplicate values varied by 0-2-fold, the lower of the two values was reported below. Generally speaking, if the duplicate values varied by more than 2-fold, the assay was considered non-valid and was repeated until the variation between duplicate runs was ≦2-fold. In line with the CLSI guidelines referred to above, both control organisms and reference compounds were utilized in each MIC assay to provide proper quality control. MIC values generated with these control organisms and reference compounds were required to fall within a defined range for the assay to be considered valid and be included herein. Those skilled in the art will recognize that MIC values can and do vary from experiment to experiment. Generally speaking, it should be recognized that MIC values often vary +/−2-fold from experiment to experiment. While a single MIC is reported for each compound and each microorganism, the reader should not conclude that each compound was only tested once. Several of the compounds were subjected to multiple tests. The data reported in Tables 2 and 3 is reflective of the compounds relative activity and different MICs may have been generated on these occasions in line with the guidelines described above.
In Table 3 below, column 1 corresponds to the Example number, column 2 provides the IUPAC name, columns 3-6 provide in vitro biological data generated in the same manner as in Table 2, columns 7 and 8 provide the retention times and mass spectra generated via LCMS, using the method described below. All data is not currently available for all compounds, as indicated by a blank cell in Table 3.

[1] = molecular target: T1, Pseudomonas aeruginosa LpxC enzyme (Pseudomonas aeruginosa, UniProt P47205); experiment: IC50 assay, LpxC enzyme from P. aeruginosa (PA LpxC enzyme IC50); format: biochemical; details: LpxC enzyme 0.1 nM, 25° C., 1 hour
T1 construct: made in house; host or cells: E. coli
T1 sequence (P47205 1-303): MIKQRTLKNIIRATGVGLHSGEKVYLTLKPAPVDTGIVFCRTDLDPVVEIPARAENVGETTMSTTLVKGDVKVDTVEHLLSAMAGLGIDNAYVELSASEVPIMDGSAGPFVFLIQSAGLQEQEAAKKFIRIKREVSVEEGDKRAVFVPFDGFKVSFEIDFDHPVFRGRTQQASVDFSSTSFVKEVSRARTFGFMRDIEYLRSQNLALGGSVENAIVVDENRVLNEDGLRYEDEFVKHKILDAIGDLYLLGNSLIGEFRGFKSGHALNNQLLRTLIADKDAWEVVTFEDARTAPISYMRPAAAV
Description: In order to assess the compounds biological activity, selected in vitro assays were conducted on selected compounds. One of the assays measured the compounds ability to disrupt the synthesis of lipopolysaccharide, LPS, which is a component of the outer membrane of Gram-negative bacteria. Disruption of this synthesis is lethal to the bacteria. The assay determined the compound's ability to inhibit LpxC, which is the first enzyme in the biosynthetic pathway for LPS (measured as IC50). Additionally, MICs (minimal inhibitory concentrations) were determined for several bacteria. The specific protocols are described below:
A) IC50 Assay, LpxC Enzyme from P. aeruginosa (Labeled as PA LpxC Enzyme IC50):
At the end of 1 hour, 5 ul of 1 N HCl was added to stop the enzyme reaction, the plates were centrifuged, and then processed with the BioTrove Rapidfire HTMS Mass Spectrometry System. A no-enzyme control was used in calculating the IC50 values from the percent conversion values.

[2] = system: Escherichia coli EC-1: VOGEL, mouse virulent; experiment: MIC determination, EC-1; format: cell-based; details: Escherichia coli, read-out: EC-1 (MIC), Table 3, lower of duplicate values
Description: as §1, §2, §3
(§4) The following bacterial strains were used in these MIC determinations:
3) Escherichia coli EC-1: VOGEL, mouse virulent labeled as EC-1 in Tables 2 and 3;

[3] = system: Acinetobacter baumannii/haemolyticus, multidrug-resistant clinical isolate (AB-3167); experiment: MIC determination, AB-3167; format: cell-based; details: Table 3, lower of duplicate values
Description: as §1, §2, §3, §4
2) Acinetobacter baumannii/haemolyticus: Multidrug-resistant clinical isolate labeled as AB-3167 in Tables 2 and 3;

| Compound | MIC (PA:UC12120) [µg/mL] | pIC50 ([1]; PA:IC50, Table 3) | MIC [2] [µg/mL] | MIC [3] [µg/mL] | pIC50 ([1]; Table 3, read-out: PA:IC50) |
| --- | --- | --- | --- | --- | --- |
| CC(CCn1cc(F)c(-c2ccccc2)cc1=O)(C(=O)NO)S(C)(=O)=O (stereo not drawn) [Example 78, 4-(5-fluoro-2-oxo-4-phenylpyridin-1(2H)-yl)-N-hydroxy-2-methyl-2-(methylsulfonyl)butanamide] | 1 (≈ 2.61 µM) | 8.55 | 4 (≈ 10.5 µM) | > 64 | – |
| CC(=O)Nc1ccc(-c2cc(=O)n(CCC(C)(C(=O)NO)S(C)(=O)=O)cc2F)cc1 (stereo not drawn) [Example 81, 4-[4-(4-acetamidophenyl)-5-fluoro-2-oxopyridin-1(2H)-yl]-N-hydroxy-2-methyl-2-(methylsulfonyl)butanamide] | 32 (≈ 72.8 µM) | – | 64 (≈ 146 µM) | > 64 | 7.61 |
| CC(CCn1cc(F)c(-c2ccc(Cl)c(C#N)c2)cc1=O)(C(=O)NO)S(C)(=O)=O (stereo not drawn) [Example 102, 4-[4-(4-chloro-3-cyanophenyl)-5-fluoro-2-oxopyridin-1(2H)-yl]-N-hydroxy-2-methyl-2-(methylsulfonyl)butanamide] | 4 (≈ 9.05 µM) | – | 4 (≈ 9.05 µM) | > 64 | 8.68 |
| COCc1cccc(-c2cc(=O)n(CCC(C)(C(=O)NO)S(C)(=O)=O)cc2F)c1 (stereo not drawn) [Example 93, 4-{5-fluoro-4-[3-(methoxymethyl)phenyl]-2-oxopyridin-1(2H)-yl}-N-hydroxy-2-methyl-2-(methylsulfonyl)butanamide] | 8 (≈ 18.8 µM) | – | 32 (≈ 75 µM) | > 64 | 7.85 |
| CC(CCn1cc(F)c(-c2cnc3ccoc3c2)cc1=O)(C(=O)NO)S(C)(=O)=O (stereo not drawn) [Example 72, 4-(5-fluoro-4-furo[3,2-b]pyridin-6-yl-2-oxopyridin-1(2H)-yl)-N-hydroxy-2-methyl-2-(methylsulfonyl)butanamide] | 32 (≈ 75.6 µM) | – | 64 (≈ 151 µM) | > 64 | 7.46 |
| CC(CCn1cc(F)c(-c2cccc(F)c2F)cc1=O)(C(=O)NO)S(C)(=O)=O (stereo not drawn) [Example 117, 4-[4-(2,3-difluorophenyl)-5-fluoro-2-oxopyridin-1(2H)-yl]-N-hydroxy-2-methyl-2-(methylsulfonyl)butanamide] | 0.5 (≈ 1.2 µM) | – | 2 (≈ 4.78 µM) | > 64 | 9.10 |
| CN1Cc2ccc(-c3cc(=O)n(CCC(C)(C(=O)NO)S(C)(=O)=O)cc3F)cc2C1=O (stereo not drawn) [Example 57, 4-[5-fluoro-4-(2-methyl-3-oxo-2,3-dihydro-1H-isoindol-5-yl)-2-oxopyridin-1(2H)-yl]-N-hydroxy-2-methyl-2-(methylsulfonyl)butanamide] | > 64 | – | > 64 | > 64 | 7.68 |
| COc1ccc(-c2cc(=O)n(CCC(C)(C(=O)NO)S(C)(=O)=O)cc2F)cn1 (stereo not drawn) [Example 89, 4-(5′-fluoro-6-methoxy-2′-oxo-3,4′-bipyridin-1′(2′H)-yl)-N-hydroxy-2-methyl-2-(methylsulfonyl)butanamide] | 2 (≈ 4.84 µM) | – | 8 (≈ 19.4 µM) | > 64 | 8.51 |
| COc1cc(C#N)ccc1-c1cc(=O)n(CCC(C)(C(=O)NO)S(C)(=O)=O)cc1F (stereo not drawn) [Example 101, 4-[4-(4-cyano-2-methoxyphenyl)-5-fluoro-2-oxopyridin-1(2H)-yl]-N-hydroxy-2-methyl-2-(methylsulfonyl)butanamide] | 8 (≈ 18.3 µM) | – | 64 (≈ 146 µM) | > 64 | 8.28 |
| CC(CCn1cc(F)c(-c2ccc(O)nc2)cc1=O)(C(=O)NO)S(C)(=O)=O (stereo not drawn) [Example 80, 4-(5′-fluoro-6-hydroxy-2′-oxo-3,4′-bipyridin-1′(2′H)-yl)-N-hydroxy-2-methyl-2-(methylsulfonyl)butanamide] | > 64 | – | > 64 | > 64 | < 7.00 |
| CC(C)(C#N)c1ccc(-c2cc(=O)n(CCC(C)(C(=O)NO)S(C)(=O)=O)cc2F)cc1 (stereo not drawn) [Example 60, 4-{4-[4-(1-cyano-1-methylethyl)phenyl]-5-fluoro-2-oxopyridin-1(2H)-yl}-N-hydroxy-2-methyl-2-(methylsulfonyl)butanamide] | 4 (≈ 8.9 µM) | – | 32 (≈ 71.2 µM) | > 64 | 8.41 |
| CC(CCn1cc(F)c(-c2ccc(CO)nc2)cc1=O)(C(=O)NO)S(C)(=O)=O (stereo not drawn) [Example 85, 4-[5′-fluoro-6-(hydroxymethyl)-2′-oxo-3,4′-bipyridin-1′(2′H)-yl]-N-hydroxy-2-methyl-2-(methylsulfonyl)butanamide] | > 64 | – | > 64 | > 64 | < 7.00 |
| CCOc1ccc(-c2cc(=O)n(CCC(C)(C(=O)NO)S(C)(=O)=O)cc2F)cn1 (stereo not drawn) [Example 99, 4-(6-ethoxy-5′-fluoro-2′-oxo-3,4′-bipyridin-1′(2′H)-yl)-N-hydroxy-2-methyl-2-(methylsulfonyl)butanamide] | 2 (≈ 4.68 µM) | – | 2 (≈ 4.68 µM) | > 64 | 8.60 |
| CNC(=O)c1ccc(-c2cc(=O)n(CCC(C)(C(=O)NO)S(C)(=O)=O)cc2F)cc1 (stereo not drawn) [Example 84, 4-{5-fluoro-1-[4-(hydroxyamino)-3-methyl-3-(methylsulfonyl)-4-oxobutyl]-2-oxo-1,2-dihydropyridin-4-yl}-N-methylbenzamide] | > 64 | – | > 64 | > 64 | 7.84 |
| CC(CCn1cc(F)c(-c2cc[nH]n2)cc1=O)(C(=O)NO)S(C)(=O)=O (stereo not drawn) [Example 121, 4-[5-fluoro-2-oxo-4-(1H-pyrazol-3-yl)pyridin-1(2H)-yl]-N-hydroxy-2-methyl-2-(methylsulfonyl)butanamide] | > 64 | – | > 64 | > 64 | – |
| CC(CCn1cc(F)c(-c2cccc(CC(N)=O)c2)cc1=O)(C(=O)NO)S(C)(=O)=O (stereo not drawn) [Example 123, 4-{4-[3-(2-amino-2-oxoethyl)phenyl]-5-fluoro-2-oxopyridin-1(2H)-yl}-N-hydroxy-2-methyl-2-(methylsulfonyl)butanamide] | > 64 | – | > 64 | > 64 | – |
| CC(CCn1cc(F)c(-c2ccc(F)c(CO)c2)cc1=O)(C(=O)NO)S(C)(=O)=O (stereo not drawn) [Example 105, 4-{5-fluoro-4-[4-fluoro-3-(hydroxymethyl)phenyl]-2-oxopyridin-1(2H)-yl}-N-hydroxy-2-methyl-2-(methylsulfonyl)butanamide] | > 64 | – | > 64 | > 64 | – |
| CC(CCn1cc(F)c(-c2cccc(CO)c2F)cc1=O)(C(=O)NO)S(C)(=O)=O (stereo not drawn) [Example 122, 4-{5-fluoro-4-[2-fluoro-3-(hydroxymethyl)phenyl]-2-oxopyridin-1(2H)-yl}-N-hydroxy-2-methyl-2-(methylsulfonyl)butanamide] | – | – | – | – | 8.62 |
